{"source": "patent US20220340597A1", "about": "“HEXAHYDRO-1H-PYRAZINO[1,2-A]PYRAZINE COMPOUNDS FOR THE TREATMENT OF AUTOIMMUNE DISEASE” (Hoffmann-La Roche Inc., priority 2019, published 2022)"}
{"biological_target": "T1, human TLR7 (Homo sapiens, UniProt Q9NYK1)", "T1 construct": "host or cells: HEK293 (HEK-Blue hTLR7)", "T1 sequence (Q9NYK1 27-1049)": "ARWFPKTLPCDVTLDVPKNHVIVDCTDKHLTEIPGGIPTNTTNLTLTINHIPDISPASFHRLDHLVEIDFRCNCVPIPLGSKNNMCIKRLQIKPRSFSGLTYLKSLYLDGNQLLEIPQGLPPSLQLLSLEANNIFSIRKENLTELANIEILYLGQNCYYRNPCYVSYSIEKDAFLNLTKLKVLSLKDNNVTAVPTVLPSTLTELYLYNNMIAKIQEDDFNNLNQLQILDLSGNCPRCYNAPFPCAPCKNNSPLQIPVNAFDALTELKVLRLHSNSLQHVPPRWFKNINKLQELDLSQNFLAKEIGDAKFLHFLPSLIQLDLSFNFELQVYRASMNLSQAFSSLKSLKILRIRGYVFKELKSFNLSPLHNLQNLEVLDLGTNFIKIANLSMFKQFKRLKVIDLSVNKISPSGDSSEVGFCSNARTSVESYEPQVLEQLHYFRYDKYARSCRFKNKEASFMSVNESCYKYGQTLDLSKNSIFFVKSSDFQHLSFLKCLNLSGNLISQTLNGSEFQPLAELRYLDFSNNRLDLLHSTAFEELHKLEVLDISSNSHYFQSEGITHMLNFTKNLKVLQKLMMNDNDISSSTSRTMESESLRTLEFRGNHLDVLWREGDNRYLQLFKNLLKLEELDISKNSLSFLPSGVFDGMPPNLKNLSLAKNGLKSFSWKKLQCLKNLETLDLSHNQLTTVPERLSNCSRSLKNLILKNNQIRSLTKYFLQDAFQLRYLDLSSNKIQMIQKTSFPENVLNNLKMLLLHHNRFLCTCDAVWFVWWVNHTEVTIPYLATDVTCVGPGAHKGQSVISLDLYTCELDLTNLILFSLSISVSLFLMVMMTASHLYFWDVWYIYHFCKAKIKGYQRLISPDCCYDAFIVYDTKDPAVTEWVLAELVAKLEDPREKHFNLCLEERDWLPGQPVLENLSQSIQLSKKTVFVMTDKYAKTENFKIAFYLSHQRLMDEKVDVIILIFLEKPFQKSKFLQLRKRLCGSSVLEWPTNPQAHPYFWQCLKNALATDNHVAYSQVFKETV", "experiment": "HEK293-Blue-hTLR-7 cells assay", "assay_type": "cell-based", "conditions": "HEK293-Blue-hTLR7 cells, R848 stimulation, 20 hrs, SEAP reporter; read-out: HEK/hTLR7 IC50", "experimental": "The following tests were carried out in order to determine the activity of the compounds of formula (I) and (Ia) in HEK293-Blue-hTLR-7/8/9 cells assay.\nHEK293-Blue-hTLR-7 cells assay:\nA stable HEK293-Blue-hTLR-7 cell line was purchased from InvivoGen (Cat. #: hkb-htlr7, San Diego, Calif., USA). These cells were originally designed for studying the stimulation of human TLR7 by monitoring the activation of NF-κB. A SEAP (secreted embryonic alkaline phosphatase) reporter gene was placed under the control of the […] minimal promoter fused to five NF-κB and AP-1-binding sites. The SEAP was induced by activating NF-κB and AP-1 via stimulating HEK-Blue hTLR7 cells with TLR7 ligands. Therefore, the reporter expression was declined by TLR7 antagonist under the stimulation of a ligand, such as R848 (Resiquimod), for incubation of 20 hrs. The cell culture supernatant SEAP reporter activity was determined using QUANTI-Blue™ kit (Cat. #: rep-qb1, Invivogen, San Diego, Calif., USA) at a wavelength of 640 nm, a detection medium that turns purple or blue in the presence of alkaline phosphatase.\nThen 20 μL of the supernatant from each well was incubated with […] Quanti-blue substrate solution at 37° C. for 2 hrs and the absorbance was read at 620-655 nm using a spectrophotometer. The signaling pathway that TLR7 activation leads to downstream NF-κB activation has been widely accepted, and therefore similar reporter assay was modified for evaluating TLR7 antagonist.", "units": {"IC50": "µM"}}
{"smiles": "Cc1cc(N2CCN3[C@@H](C2)CN(c2ccc(C#N)c4ncccc24)C[C@H]3C)cc(N2CC(C)(N)C2)n1", "note": "[Example 73, 5-[(4R,9aS)-8-[2-(3-amino-3-methyl-azetidin-1-yl)-6-methyl-4-pyridyl]-4-methyl-3,4,6,7,9,9a-hexahydro-1H-pyrazino[1,2-a]pyrazin-2-yl]quinoline-8-carbonitrile]", "IC50": 0.025}
{"smiles": "C[C@@H]1CN(c2ccc(C#N)c3ncccc23)C[C@@H]2CN(Cc3cccc4c3CCNC4)CCN21", "note": "[Example 70, 5-[(4R,9aS)-4-methyl-8-(1,2,3,4-tetrahydroisoquinolin-5-ylmethyl)-3,4,6,7,9,9a-hexahydro-1H-pyrazino[1,2-a]pyrazin-2-yl]quinoline-8-carbonitrile]", "IC50": 0.011}
{"smiles": "C[C@@H]1CN(c2ccc(C#N)c3ncccc23)C[C@@H]2CN(CCc3ccc(N4CC5(CNCCO5)C4)nc3)CCN21", "note": "[Example 59, 5-[(4R,9aS)-4-methyl-8-[2-[6-(5-oxa-2,8-diazaspiro[3.5]nonan-2-yl)-3-pyridyl]ethyl]-3,4,6,7,9,9a-hexahydro-1H-pyrazino[1,2-a]pyrazin-2-yl]quinoline-8-carbonitrile]", "IC50": 0.009}
{"smiles": "C[C@@H]1CN(c2ccc(C#N)c3ncccc23)C[C@@H]2CN(Cc3cncc(N4CCNCC4)c3)CCN21", "note": "[Example 57, 5-[(4R,9aS)-4-methyl-8-[(5-piperazin-1-yl-3-pyridyl)methyl]-3,4,6,7,9,9a-hexahydro-1H-pyrazino[1,2-a]pyrazin-2-yl]quinoline-8-carbonitrile]", "IC50": 0.023}
{"smiles": "C[C@@H]1CN(c2ccc(C#N)c3ncccc23)C[C@@H]2CN(Cc3cccc4c3CNCC4)CCN21", "note": "[Example 71, 5-[(4R,9aS)-4-methyl-8-(1,2,3,4-tetrahydroisoquinolin-8-ylmethyl)-3,4,6,7,9,9a-hexahydro-1H-pyrazino[1,2-a]pyrazin-2-yl]quinoline-8-carbonitrile]", "IC50": 0.045}
{"smiles": "C[C@@H]1CN(c2ccc(C#N)c3ncccc23)C[C@@H]2CN(c3ccnc(N4CC(C)(N)C4)c3)CCN21", "note": "[Example 56, 5-[(4R,9aS)-8-[2-(3-amino-3-methyl-azetidin-1-yl)-4-pyridyl]-4-methyl-3,4,6,7,9,9a-hexahydro-1H-pyrazino[1,2-a]pyrazin-2-yl]quinoline-8-carbonitrile]", "IC50": 0.013}
{"smiles": "C[C@@H]1CN(c2ccc(C#N)c3ncccc23)C[C@@H]2CN(c3nccc4c3CCNC4)CCN21", "note": "[Example 16, 5-[(4R,9aR)-4-methyl-8-(5,6,7,8-tetrahydro-2,6-naphthyridin-1-yl)-3,4,6,7,9,9a-hexahydro-1H-pyrazino[1,2-a]pyrazin-2-yl]quinoline-8-carbonitrile]", "IC50": 0.006}
{"smiles": "[2H]c1ccc2c(N3C[C@@H]4CN(Cc5ccc6c(c5)CNCC6)CCN4[C@H](C)C3)ccc(C#N)c2n1", "note": "[Example 61, 5-[(4R,9aS)-4-methyl-8-(1,2,3,4-tetrahydroisoquinolin-7-ylmethyl)-3,4,6,7,9,9a-hexahydro-1H-pyrazino[1,2-a]pyrazin-2-yl]-2-deuterio-quinoline-8-carbonitrile]", "IC50": 0.016}
{"smiles": "[2H]c1ccc2c(N3C[C@@H]4CN(c5ncc(N6CC7CC(C6)N7)cc5C)CCN4[C@@H](C)C3)ccc(C#N)c2n1", "note": "[Example 108, 5-[(4S,9aR)-8-[5-(3,6-diazabicyclo[3.1.1]heptan-3-yl)-3-methyl-2-pyridyl]-4-methyl-3,4,6,7,9,9a-hexahydro-1H-pyrazino[1,2-a]pyrazin-2-yl]-2-deuterio-quinoline-8-carbonitrile]", "IC50": 0.003}
{"smiles": "C[C@@H]1CN(c2ccc(C#N)c3ncccc23)C[C@@H]2CN(c3ccnc(N4CC[C@@](C)(N)C4)c3)CCN21", "note": "[Example 105, 5-[(4R,9aS)-8-[2-[(3R)-3-amino-3-methyl-pyrrolidin-1-yl]-4-pyridyl]-4-methyl-3,4,6,7,9,9a-hexahydro-1H-pyrazino[1,2-a]pyrazin-2-yl]quinoline-8-carbonitrile]", "IC50": 0.026}
{"smiles": "CO[C@@H]1CN(c2ccc(CCN3CCN4[C@@H](C3)CN(c3ccc(C#N)c5ncccc35)C[C@H]4C)nc2)C[C@H]1N", "note": "[Example 13, 5-[(4R,9aS)-8-[2-[5-[(3R,4R)-3-amino-4-methoxy-pyrrolidin-1-yl]-2-pyridyl]ethyl]-4-methyl-3,4,6,7,9,9a-hexahydro-1H-pyrazino[1,2-a]pyrazin-2-yl]quinoline-8-carbonitrile]", "IC50": 0.026}
{"smiles": "[2H]c1ccc2c(N3C[C@@H]4CN(c5ccc(CCN6C[C@H](OC)[C@@H](N)C6)cn5)CCN4[C@@H](C)C3)ccc(C#N)c2n1", "note": "[Example 122, 5-[(4S,9aR)-8-[5-[2-[(3S,4S)-3-amino-4-methoxy-pyrrolidin-1-yl]ethyl]-2-pyridyl]-4-methyl-3,4,6,7,9,9a-hexahydro-1H-pyrazino[1,2-a]pyrazin-2-yl]-2-deuterio-quinoline-8-carbonitrile]", "IC50": 0.009}
{"smiles": "Cc1cc(N2CCOC[C@H](N)C2)ncc1N1CCN2CCN(c3ccc(C#N)c4ncccc34)CC2C1", "note": "(stereo partly drawn) [Example 46, 5-[2-[6-[(6R)-6-amino-1,4-oxazepan-4-yl]-4-methyl-3-pyridyl]-3,4,6,7,9,9a-hexahydro-1H-pyrazino[1,2-a]pyrazin-8-yl]quinoline-8-carbonitrile]", "IC50": 0.014}
{"smiles": "C[C@@H]1CN(c2ccc(C#N)c3ncccc23)C[C@@H]2CN(CCc3ccc(N4C[C@@H](N)[C@@H](F)C4)cn3)CCN21", "note": "[Example 19, 5-[(4R,9aS)-8-[2-[5-[(3R,4S)-3-amino-4-fluoro-pyrrolidin-1-yl]-2-pyridyl]ethyl]-4-methyl-3,4,6,7,9,9a-hexahydro-1H-pyrazino[1,2-a]pyrazin-2-yl]quinoline-8-carbonitrile]", "IC50": 0.01}
{"smiles": "C[C@@H]1CN(c2ccc(C#N)c3ncccc23)C[C@@H]2CN(c3ccnc(N4CCOC[C@H](N)C4)c3)CCN21", "note": "[Example 54, 5-[(4R,9aS)-8-[2-[(6R)-6-amino-1,4-oxazepan-4-yl]-4-pyridyl]-4-methyl-3,4,6,7,9,9a-hexahydro-1H-pyrazino[1,2-a]pyrazin-2-yl]quinoline-8-carbonitrile]", "IC50": 0.023}
{"smiles": "[2H]c1ccc2c(N3C[C@@H]4CN(c5ncc(C(=O)N6CC7(CN(C)C7)C6)cc5C)CCN4[C@@H](C)C3)ccc(C#N)c2n1", "note": "[Example 103, 5-[(4S,9aR)-4-methyl-8-[3-methyl-5-(6-methyl-2,6-diazaspiro[3.3]heptane-2-carbonyl)-2-pyridyl]-3,4,6,7,9,9a-hexahydro-1H-pyrazino[1,2-a]pyrazin-2-yl]-2-deuterio-quinoline-8-carbonitrile]", "IC50": 0.006}
{"smiles": "C[C@@H]1CN(c2ccc(C#N)c3ncccc23)C[C@@H]2CN(CCc3ccc(N4C[C@H]5NCCO[C@@H]5C4)nc3)CCN21", "note": "[Example 124, 5-[(4R,9aS)-8-[2-[6-[(4aR,7aR)-3,4,4a,5,7,7a-hexahydro-2H-pyrrolo[3,4-b][1,4]oxazin-6-yl]-3-pyridyl]ethyl]-4-methyl-3,4,6,7,9,9a-hexahydro-1H-pyrazino[1,2-a]pyrazin-2-yl]quinoline-8-carbonitrile]", "IC50": 0.014}
{"smiles": "Cc1cc(N2CCN3[C@@H](C2)CN(c2ccc(C#N)c4ncccc24)C[C@H]3C)nc(N2CCNCC2)n1", "note": "[Example 31, 5-[(4R,9aR)-4-methyl-8-(6-methyl-2-piperazin-1-yl-pyrimidin-4-yl)-3,4,6,7,9,9a-hexahydro-1H-pyrazino[1,2-a]pyrazin-2-yl]quinoline-8-carbonitrile]", "IC50": 0.022}
{"smiles": "C[C@@H]1CN(c2ccc(C#N)c3ncccc23)C[C@@H]2CN(CCc3cccc(N4CCN[C@@H](C)C4)n3)CCN21", "note": "[Example 21, 5-[(4R,9aS)-4-methyl-8-[2-[6-[(3S)-3-methylpiperazin-1-yl]-2-pyridyl]ethyl]-3,4,6,7,9,9a-hexahydro-1H-pyrazino[1,2-a]pyrazin-2-yl]quinoline-8-carbonitrile]", "IC50": 0.019}
